Laboratory results published in the NIST ThermoML archive (doi:10.1016/j.fluid.2008.02.007).
± gives the expanded uncertainty stated by the source.

Conditions: Crystal; visual observation

Row | Normal melting temperature | SMILES
1 | 147.7 ± 0.5 °C | O=C(O)c1ccccc1[N+](=O)[O-] [2-nitrobenzoic acid]
2 | 240 ± 0.5 °C | O=C(O)c1ccc([N+](=O)[O-])cc1 [4-nitrobenzoic acid]
